The record followed here is patent US20230192661A1, “1, 4, 5, 6-TETRAHYDROPYRIMIDINE-2-AMINE DERIVATIVE” (UBE Corporation, priority 2020, published 2023).

SMILES strings stand for the structures.

As a reminder, the IC50 is the concentration at which inhibition is half-maximal.

The assay deals with Human hepatic stellate cells. The experiment in a line: Active human hepatic stellate cell dedifferentiation test (decrease in ACTA2 mRNA expression). Type of assay: cell-based. The note with it: 3 days differentiation then 2 days with compound, read-out: IC50 (rate of decrease in ACTA2 mRNA expression). On the procedure: Human hepatic stellate cells (manufactured by ScienCell Research Laboratories, Inc., 5300) were suspended in DMEM containing 10% FBS and […] penicillin/streptomycin/amphotericin B to prepare a cell suspension of 0.5×10^5 cells/mL, which was regarded as cells at the start of differentiation. The cells at the start of differentiation were dispensed at 1 mL/well to a 12-well plate and cultured, for differentiation, for 3 days in a 5% CO2 incubator (37° C.).
The culture solution in each well was removed, and DMEM containing 10% FBS and 1% penicillin/streptomycin/amphotericin B supplemented with a test compound dissolved in DMSO (final DMSO concentration: 0.1%) was added at 1 mL/well. The resultant was further cultured for 2 days in a 5% CO2 incubator (37° C.). In Test Example 4, the same reagents as in Test Example 1 were used unless otherwise specified.
RNA in the cultured cells was extracted using NucleoSpin® RNA (manufactured by Takara Bio Inc., U0955C), and cDNA was further synthesized from the extracted RNA using Prime Script™ RT reagent Kit with gDNA Eraser (manufactured by Takara Bio Inc., RR047A). Real time PCR was performed using the synthesized cDNA, various primers and TB Green® Premix Ex Taq™ II (manufactured by Takara Bio Inc., RR820A) and using PCR Thermal Cycler Dice Real Time (manufactured by Takara Bio Inc., System Code TP910, Model Code TP900). The primers used were actin alpha 2, smooth muscle (ACTA2) primer (manufactured by Takara Bio Inc., HA136273) and glyceraldehyde-3-phosphate dehydrogenase (GAPDH) primer (manufactured by Takara Bio Inc., HA067812).
The amplification curve of PCR was analyzed by the comparative Ct method. The expression level of ACTA2 mRNA was corrected with the expression level of GAPDH mRNA. An ACTA2 mRNA expression level when DMSO was added instead of the test compound was defined as 100%, and an ACTA2 mRNA expression level in the cells at the start of differentiation was defined as 0%. The rate of decrease in ACTA2 mRNA expression by the test compound was calculated according to the following expression.
Rate of decrease in ACTA2 mRNA expression (%)=[1−{(ACTA2 mRNA expression level in the case of adding the test compound)−(ACTA2 mRNA expression level in the cells at the start of differentiation)}/{(ACTA2 mRNA expression level in the case of adding DMSO)−(ACTA2 mRNA expression level in the cells at the start of differentiation)}]×100
An IC50 value was calculated from the rate of decrease in ACTA2 mRNA expression by the test compound. A: IC50<10 nM, B: 10 nM≤IC50<50 nM, C: 50 nM≤IC50<100 nM, or D: IC50≥100 nM.

As for `O=C(O)C[C@H](NC(=O)CNC(=O)c1cc(NC2=NCC(F)CN2)c2cn[nH]c2c1)c1ccc(F)c(C(F)(F)F)c1` (stereo partly drawn) [Example 13-(b), (3S)-3-(2-(4-((5-fluoro-1,4,5,6-tetrahydropyrimidin-2-yl)amino)-1H-indazole-6-carboxamido)acetamido)-3-(4-fluoro-3-(trifluoromethyl)phenyl)propanoic acid], the IC50 lay within 10 to 50 nM.
As to `O=C(O)C[C@H](NC(=O)CNC(=O)c1cc(NC2=NCC(F)CN2)c2cn[nH]c2c1)c1cc(Cl)cc(C(F)(F)F)c1` (stereo partly drawn) [Example 1-(b), (3S)-3-(3-chloro-5-(trifluoromethyl)phenyl)-3-(2-(4-((5-fluoro-1,4,5,6-tetrahydropyrimidin-2-yl)amino)-1H-indazole-6-carboxamido)acetamido)propanoic acid], the IC50 was less than 10 nM.
Take `O=C(O)C[C@H](NC(=O)CNC(=O)c1cc(NC2=NCC(F)CN2)c2cn[nH]c2c1)c1cc(OC(F)F)ccc1F` (stereo partly drawn) [Example 28-(b), (3S)-3-(5-(difluoromethoxy)-2-fluorophenyl)-3-(2-(4-((5-fluoro-1,4,5,6-tetrahydropyrimidin-2-yl)amino)-1H-indazole-6-carboxamido)acetamido)propanoic acid]: the half-maximal inhibitory concentration (IC50) is 10 to 50 nM.
Regarding `O=C(O)C[C@H](NC(=O)CNC(=O)c1cc(NC2=NCC(F)CN2)c2cn[nH]c2c1)c1cc(C(F)(F)F)ccc1Cl` (stereo partly drawn) [Example 12-(b), (3S)-3-(2-chloro-5-(trifluoromethyl)phenyl)-3-(2-(4-((5-fluoro-1,4,5,6-tetrahydropyrimidin-2-yl)amino)-1H-indazole-6-carboxamido)acetamido)propanoic acid], the IC50 is 10 to 50 nM.
As to `Cc1cc([C@H](CC(=O)O)NC(=O)CNC(=O)c2cc(NC3=NCC(F)CN3)c3cn[nH]c3c2)cc(C(F)(F)F)c1` (stereo partly drawn) [Example 4-(b), (3S)-3-(2-(4-((5-fluoro-1,4,5,6-tetrahydropyrimidin-2-yl)amino)-1H-indazole-6-carboxamido)acetamido)-3-(3-methyl-5-(trifluoromethyl)phenyl)propanoic acid], the IC50 is 10 to 50 nM.
Take `O=C(O)C[C@H](NC(=O)CNC(=O)c1cc(NC2=NCC(F)CN2)c2cn[nH]c2c1)c1cc(-n2cccn2)cc(C(F)(F)F)c1` (stereo partly drawn) [Example 8-(b), (3S)-3-(3-(1H-pyrazol-1-yl)-5-(trifluoromethyl)phenyl)-3-(2-(4-((5-fluoro-1,4,5,6-tetrahydropyrimidin-2-yl)amino)-1H-indazole-6-carboxamido)acetamido)propanoic acid]: the IC50 is 50 to 100 nM.
For `O=C(O)C[C@H](NC(=O)CNC(=O)c1cc(NC2=NCC(F)CN2)c2cn[nH]c2c1)c1cc(Cl)cc(OC(F)F)c1` (stereo partly drawn) [Example 25-(b), (3S)-3-(3-chloro-5-(difluoromethoxy)phenyl)-3-(2-(4-((5-fluoro-1,4,5,6-tetrahydropyrimidin-2-yl)amino)-1H-indazole-6-carboxamido)acetamido)propanoic acid], the IC50 is less than 10 nM.
`O=C(O)C[C@H](NC(=O)CNC(=O)c1cc(NC2=NCC(F)CN2)cc2[nH]ncc12)c1cc(Br)cc(C(F)(F)F)c1` (stereo partly drawn) [Example 53-(b), (3S)-3-(3-bromo-5-(trifluoromethyl)phenyl)-3-(2-(6-((5-fluoro-1,4,5,6-tetrahydropyrimidin-2-yl)amino)-1H-indazole-4-carboxamido)acetamido)propanoic acid]: the IC50 is 10 to 50 nM.
As for `O=C(O)C[C@H](NC(=O)CNC(=O)c1cc(NC2=NCC(F)CN2)c2cn[nH]c2c1)c1cc(Br)cc(I)c1` (stereo partly drawn) [Example 20-(b), (3S)-3-(3-bromo-5-iodophenyl)-3-(2-(4-((5-fluoro-1,4,5,6-tetrahydropyrimidin-2-yl)amino)-1H-indazole-6-carboxamido)acetamido)propanoic acid], the IC50 is less than 10 nM.
`O=C(O)C[C@H](NC(=O)CNC(=O)c1cc(NC2=NCC(F)CN2)c2cn[nH]c2c1)c1cc(Br)cc(OC(F)(F)F)c1` (stereo partly drawn) [Example 32-(b), (3S)-3-(3-bromo-5-(trifluoromethoxy)phenyl)-3-(2-(4-((5-fluoro-1,4,5,6-tetrahydropyrimidin-2-yl)amino)-1H-indazole-6-carboxamido)acetamido)propanoic acid]: the IC50 lay within 10 to 50 nM.
Regarding `O=C(O)C[C@H](NC(=O)CNC(=O)c1cc(NC2=NCC(F)CN2)c2cn[nH]c2c1)c1cc(Br)cc(OC(F)F)c1` (stereo partly drawn) [Example 26-(b), (3S)-3-(3-bromo-5-(difluoromethoxy)phenyl)-3-(2-(4-((5-fluoro-1,4,5,6-tetrahydropyrimidin-2-yl)amino)-1H-indazole-6-carboxamido)acetamido)propanoic acid], the half-inhibitory concentration (IC50) is less than 10 nM.
With `O=C(O)C[C@H](NC(=O)CNC(=O)c1cc(NC2=NCC(F)CN2)c2cn[nH]c2c1)c1cccc(OC2CC2)c1` (stereo partly drawn) [Example 40-(b), (3S)-3-(3-cyclopropoxyphenyl)-3-(2-(4-((5-fluoro-1,4,5,6-tetrahydropyrimidin-2-yl)amino)-1H-indazole-6-carboxamido)acetamido)propanoic acid], the IC50 fell in the range of 10 to 50 nM.
Turning to `O=C(O)C[C@H](NC(=O)CNC(=O)c1cc(NC2=NCC(F)CN2)cc2[nH]ncc12)c1cccc(C(F)(F)F)c1` (stereo partly drawn) [Example 56-(b), (3S)-3-(2-(6-((5-fluoro-1,4,5,6-tetrahydropyrimidin-2-yl)amino)-1H-indazole-4-carboxamido)acetamido)-3-(3-(trifluoromethyl)phenyl)propanoic acid], the IC50 is less than 10 nM.
Regarding `O=C(O)C[C@H](NC(=O)CNC(=O)c1cc(NC2=NCC(F)CN2)c2cn[nH]c2c1)c1cc(Cl)cc(Br)c1` (stereo partly drawn) [Example 18-(b), (3S)-3-(3-bromo-5-chlorophenyl)-3-(2-(4-((5-fluoro-1,4,5,6-tetrahydropyrimidin-2-yl)amino)-1H-indazole-6-carboxamido)acetamido)propanoic acid], the IC50 was less than 10 nM.
On to `O=C(O)C[C@H](NC(=O)CNC(=O)c1cc(NC2=NCC(F)CN2)c2cn[nH]c2c1)c1cc(OC(F)F)cc(C(F)(F)F)c1` (stereo partly drawn) [Example 24-(b), (3S)-3-(3-(difluoromethoxy)-5-(trifluoromethyl)phenyl)-3-(2-(4-((5-fluoro-1,4,5,6-tetrahydropyrimidin-2-yl)amino)-1H-indazole-6-carboxamido)acetamido)propanoic acid], for which the IC50 is less than 10 nM.
In the case of `O=C(O)C[C@H](NC(=O)CNC(=O)c1cc(NC2=NCC(F)CN2)cc2[nH]ncc12)c1ccc(F)c(C(F)(F)F)c1` (stereo partly drawn) [Example 55-(b), (3S)-3-(2-(6-((5-fluoro-1,4,5,6-tetrahydropyrimidin-2-yl)amino)-1H-indazole-4-carboxamido)acetamido)-3-(4-fluoro-3-(trifluoromethyl)phenyl)propanoic acid], the IC50 is less than 10 nM.
Take `COc1cc([C@H](CC(=O)O)NC(=O)CNC(=O)c2cc(NC3=NCC(F)CN3)c3cn[nH]c3c2)cc(C(F)(F)F)c1` (stereo partly drawn) [Example 5-(b), (3S)-3-(2-(4-((5-fluoro-1,4,5,6-tetrahydropyrimidin-2-yl)amino)-1H-indazole-6-carboxamido)acetamido)-3-(3-methoxy-5-(trifluoromethyl)phenyl)propanoic acid]: the half-maximal inhibitory concentration (IC50) was less than 10 nM.
`O=C(O)C[C@H](NC(=O)CNC(=O)c1cc(NC2=NCC(F)CN2)c2cn[nH]c2c1)c1cc(C(F)(F)F)cc(C(F)(F)F)c1` (stereo partly drawn) [Example 7-(b), (3S)-3-(3,5-bis(trifluoromethyl)phenyl)-3-(2-(4-((5-fluoro-1,4,5,6-tetrahydropyrimidin-2-yl)amino)-1H-indazole-6-carboxamido)acetamido)propanoic acid]: the IC50 was less than 10 nM.
With `O=C(O)C[C@H](NC(=O)CNC(=O)c1cc(NC2=NCC(F)CN2)c2cn[nH]c2c1)c1cc(C(F)(F)F)ccc1F` (stereo partly drawn) [Example 11-(b), (3S)-3-(2-(4-((5-fluoro-1,4,5,6-tetrahydropyrimidin-2-yl)amino)-1H-indazole-6-carboxamido)acetamido)-3-(2-fluoro-5-(trifluoromethyl)phenyl)propanoic acid] the figure was less than 10 nM.
In the case of `O=C(O)C[C@H](NC(=O)CNC(=O)c1cc(NC2=NCC(F)CN2)c2cn[nH]c2c1)c1cccc(C(F)(F)F)c1` (stereo partly drawn) [Example 35-(b), (3S)-3-(2-(4-((5-fluoro-1,4,5,6-tetrahydropyrimidin-2-yl)amino)-1H-indazole-6-carboxamido)acetamido)-3-(3-(trifluoromethyl)phenyl)propanoic acid], the IC50 was less than 10 nM.
